Results on ten molecules are retold here after US5428021A, “Human leukocyte elastase (HLE) inhibitors, and related pharmaceutical compositions and methods of use” (SRI International, priority 1994, dated 1995).

What all share (format): biochemical
In assay [1] the target is T1, Elastase (human neutrophil (HLE)) (Homo sapiens, UniProt P08246).
T1 construct: purchased Calbiochem
T1 sequence (P08246 30-267): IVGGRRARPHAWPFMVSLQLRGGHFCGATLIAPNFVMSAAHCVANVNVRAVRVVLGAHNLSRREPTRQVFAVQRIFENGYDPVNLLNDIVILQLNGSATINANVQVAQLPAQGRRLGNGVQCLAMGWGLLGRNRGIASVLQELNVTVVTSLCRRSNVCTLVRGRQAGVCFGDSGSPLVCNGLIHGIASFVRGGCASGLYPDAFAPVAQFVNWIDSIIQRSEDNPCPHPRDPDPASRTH
The assay can be described thus: Inhibition of human leukocyte (neutrophil) elastase, progress curve method (methoxy-Suc-Ala-Ala-Pro-Val-pNA substrate). As to conditions: for Ki / koff / kon: 25 mM HEPES, 1M NaCl, 0.1% BRIJ 35, pH 6.5, 25° C.; for kinact/KI: pH 6.5, read-out: kobs /[I] Enzyme; for kobs /[I] HLE / kobs /[I] Enzyme: relative selectivity, HLE over HLE. Here is the method:
(§1) Enzymes and their substrates, listed below, were obtained from Calbiochem.
(§2) Enzyme and substrate concentrations were chosen to obtain pseudo first order conditions for the entire timecourse, with uninhibited enzyme maintaining a constant rate of product formation for longer than the fifteen minute sampling time.
(§3) Additional compounds within the scope of the invention were evaluated using the progress curve method of Stein et al. to determine the kinetic constants kon, koff, as well as the pKi and relative selectivity for HLE over other serine proteases.

Assay [2] addresses T2, Cathepsin-G (human neutrophil) (Homo sapiens, UniProt P08311).
T2 construct: purchased Calbiochem
T2 sequence (P08311 21-255): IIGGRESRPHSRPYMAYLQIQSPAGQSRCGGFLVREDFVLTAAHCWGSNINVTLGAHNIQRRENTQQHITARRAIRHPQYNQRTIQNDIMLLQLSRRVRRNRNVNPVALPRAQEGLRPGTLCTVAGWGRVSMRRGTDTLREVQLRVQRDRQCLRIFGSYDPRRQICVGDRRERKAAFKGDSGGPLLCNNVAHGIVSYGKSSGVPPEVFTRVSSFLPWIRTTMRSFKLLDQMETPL
In words: Inhibition of cathepsin G, progress curve method (Suc-Ala-Ala-Pro-Phe-pNA substrate). As to conditions: for kinact/KI: pH 6.5, read-out: kobs /[I] Enzyme; for kobs /[I] HLE / kobs /[I] Enzyme: relative selectivity, HLE over Cathepsin G. Here is the method:
as §1
Cathepsin-G (human neutrophil
Suc--Ala--Ala--Pro--Phe--
as §2, §3

Assay [3] deals with T3, Trypsin (bovine pancreatic) (Bos taurus, UniProt P00760).
T3 construct: purchased Calbiochem
T3 sequence (P00760 24-246): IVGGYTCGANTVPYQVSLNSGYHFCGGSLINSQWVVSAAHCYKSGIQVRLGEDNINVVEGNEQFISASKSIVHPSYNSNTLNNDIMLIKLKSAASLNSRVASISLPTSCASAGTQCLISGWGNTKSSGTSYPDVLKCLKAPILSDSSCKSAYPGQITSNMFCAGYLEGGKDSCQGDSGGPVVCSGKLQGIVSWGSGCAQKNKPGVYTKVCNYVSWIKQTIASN
The assay can be described thus: Inhibition of trypsin, progress curve method (Bz-Arg-pNA substrate). As to conditions: for kinact/KI: pH 7.5, read-out: kobs /[I] Enzyme; for kobs /[I] HLE / kobs /[I] Enzyme: relative selectivity, HLE over Trypsin. Here is the method:
as §1, §2, §3

Assay [4] addresses T4, Elastase (porcine pancreatic) (PPE) (Sus scrofa, UniProt P00772).
T4 construct: purchased Calbiochem
In words: Inhibition of porcine pancreatic elastase (PPE), progress curve method (Suc-Ala-Ala-Ala-pNA substrate). The conditions noted are these: for kinact/KI: pH 7.5, read-out: kobs /[I] Enzyme; for kobs /[I] HLE / kobs /[I] Enzyme: relative selectivity, HLE over PPE. Here is the method: as §1, §2, §3

Assay [5] addresses T5, α Chymotrypsin (bovine pancreatic) (Bos taurus, UniProt P00766).
T5 construct: purchased Calbiochem
In words: Inhibition of chymotrypsin, progress curve method (Suc-Gly-Gly-Phe-pNA substrate). The conditions noted are these: for kinact/KI: pH 7.5, read-out: kobs /[I] Enzyme; for kobs /[I] HLE / kobs /[I] Enzyme: relative selectivity, HLE over Chymotrypsin. Here is the method: as §1
Suc--Gly--Gly--Phe--pNA
as §2, §3

T4 sequence (P00772 27-266): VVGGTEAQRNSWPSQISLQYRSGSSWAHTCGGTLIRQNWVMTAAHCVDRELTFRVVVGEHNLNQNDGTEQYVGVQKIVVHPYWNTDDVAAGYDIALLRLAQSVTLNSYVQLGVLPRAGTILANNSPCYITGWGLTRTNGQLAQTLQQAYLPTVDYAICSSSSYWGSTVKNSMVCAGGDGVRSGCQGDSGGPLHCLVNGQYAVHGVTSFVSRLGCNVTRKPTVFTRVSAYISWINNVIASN

One may read the Ki as the dissociation constant of the complex between target and ligand, obtained from inhibition or displacement. Higher therefore signals a looser hold on the target. A word on the koff: it is the rate constant with which the complex falls apart. Low readings indicate slow dissociation, high ones fast dissociation. As usually defined, the kon is a measure of how fast the partners come together. A low value points to slower complex formation. Molecule `CCOc1nc2ccc(N)c(C)c2c(=O)o1` gave an inhibition constant (Ki) in assay [1] (HLE) of 0.0145 nM. In assay [1] (pH 6.5, HLE), the koff stood at 2.3e-05 s⁻¹ and the kon is 750000 M⁻¹ s⁻¹.

For `CCOc1nc2ccc(C(C)NC(=O)[C@@H](NC(=O)OC(C)(C)C)C(C)C)c(C)c2c(=O)o1` (single isomer, unassigned) [7 Isomer A], in assay [1] (HLE), the Ki was 0.0589 nM and the on-rate (kon) is recorded as 304,000 M^-1 sec^-1. Also, the dissociation rate constant (koff) in assay [1] (pH 6.5, HLE) is 1.8e-05 s⁻¹.

Take `CCOc1nc2ccc(C(C)NC(=O)[C@@H](NC(=O)OC(C)(C)C)C(C)C)c(C)c2c(=O)o1` (single isomer, unassigned) [7 Isomer B]: the affinity in assay [1] (HLE), expressed as Ki, was 0.0145 nM. This molecule also yielded a koff in assay [1] (HLE) of 0.000016 s⁻¹. The association rate constant (kon) in assay [1] (HLE) is given as 1,100,000 M^-1 sec^-1. Further, the kinact/KI was 1.1e+06 M⁻¹ s⁻¹ in assay [1]; 967 M⁻¹ s⁻¹ in assay [2]; 1550 M⁻¹ s⁻¹ in assay [3]; 967 M⁻¹ s⁻¹ in assay [4]; 2570 M⁻¹ s⁻¹ in assay [5]. The “kobs /[I] HLE / kobs /[I] Enzyme” value in assay [1] came to 1; in assay [2], 1140; in assay [3] it was 710; in assay [4] it was 1140; in assay [5], 430.

For `CCOc1nc2ccc(NC(=O)CCNC(=O)OC(C)(C)C)c(C)c2c(=O)o1` [Example 2, 6-(N-tert-butyloxycarbonyl-β-alanyl)amino-5-methyl-2-ethoxy-4H-3,1-benzoxazin-4-one], the inhibition constant (Ki) in assay [1] (HLE) was 1.1 nM. The dissociation rate constant (koff) in assay [1] (pH 6.5, HLE) was found to be 0.000404 s⁻¹. In assay [1] (pH 6.5, HLE), this molecule came in with an association rate constant (kon) of 365000 M⁻¹ s⁻¹. Also, the kinact/KI in assay [1] was found to be 365000 M⁻¹ s⁻¹; in assay [2] it was 460 M⁻¹ s⁻¹; in assay [3], 200 M⁻¹ s⁻¹; in assay [4] it was 2860 M⁻¹ s⁻¹; in assay [5], 3500 M⁻¹ s⁻¹. Also, the “kobs /[I] HLE / kobs /[I] Enzyme” value in assay [1] was 1; in assay [2] it was 790; in assay [3], 1830; in assay [4] it was 130; in assay [5], 100.

Molecule `CCOc1nc2ccc(NC(=O)CCN(C)C(=O)OC(C)(C)C)c(C)c2c(=O)o1` [Example 3, 6-(N-tert-butyloxycarbonyl-N-methyl-β-alanyl)-amino-5-methyl-2-ethoxy-3,1-benzoxazin-4-one] had an inhibition constant (Ki) in assay [1] (HLE) of 1.32 nM. Moreover, in assay [1] (pH 6.5, HLE), the koff was determined as 0.00042 s⁻¹ and the association rate constant (kon) amounted to 320000 M⁻¹ s⁻¹.

The molecule `CCOc1nc2ccc(N)c(CC)c2c(=O)o1` [Example 4] gave a Ki in assay [1] (HLE) of 0.1 nM. In assay [1] (pH 6.5, HLE), this molecule gave a dissociation rate constant (koff) of 4.7e-05 s⁻¹ and a kon of 470000 M⁻¹ s⁻¹.

In turn, `CCOc1nc2ccc(NC(=O)CCN(C)C(=O)OC(C)(C)C)c(CC)c2c(=O)o1` [Example 5, 6-(N-tert-butyloxycarbonyl-N-methyl-β-alanyl)-amino-5-ethyl-2-ethoxy-3,1-benzoxazin-4-one] gave a Ki in assay [1] (HLE) of 0.107 nM. Further, in assay [1] (pH 6.5, HLE), the koff was 3e-05 s⁻¹ and the association rate constant (kon) came to 281000 M⁻¹ s⁻¹.

In the case of `CCOc1nc2ccc(NC(=O)CCN(C)S(=O)(=O)c3ccc(C)cc3)c(CC)c2c(=O)o1` [Example 6, 6-(N-4-methylbenzenesulfonyl-N-methyl-β-alanyl)-amino-5-ethyl-2-ethoxy-4H-3,1-benzoxazin-4-one], affinity in assay [1] (HLE) was put at a Ki of 0.0933 nM. Also, in assay [1] (pH 6.5, HLE), the koff came to 6.9e-05 s⁻¹. The kon in assay [1] (pH 6.5, HLE) came to 745000 M⁻¹ s⁻¹. Further, the kinact/KI in assay [1] is 745000 M⁻¹ s⁻¹; in assay [2] it was 340 M⁻¹ s⁻¹; in assay [3], 80 M⁻¹ s⁻¹; in assay [4], 3450 M⁻¹ s⁻¹; in assay [5], 11900 M⁻¹ s⁻¹. The “kobs /[I] HLE / kobs /[I] Enzyme” value in assay [1] is listed as 1; in assay [2], 2190; in assay [3] it was 9312; in assay [4], 220; in assay [5] it was 60.

Regarding `CCOc1nc2ccc(C(C)NC(=O)[C@H](C)NC(=O)OC(C)(C)C)c(C)c2c(=O)o1` (stereo partly drawn) [Example 8, 6-[1-(N-tert-butyloxycarbonyl-L-alanyl)-aminoethyl]-2-ethyloxy-5-methyl-4H-3,1-benzoxazin-4-one], in assay [1] (HLE), the affinity, expressed as Ki, was 0.0331 nM. Also, in assay [1] (pH 6.5, HLE), the dissociation rate constant (koff) was 1.7e-05 s⁻¹ and the association rate constant (kon) is 520000 M⁻¹ s⁻¹.

Take `CCOc1nc2cccc(C)c2c(=O)o1` [positive control, reference compound]: the inhibitory constant (Ki) in assay [1] (HLE) is 0.513 nM. In assay [1] (pH 6.5, HLE), the koff came out at 7.2e-05 s⁻¹ and the kon turned out to be 140000 M⁻¹ s⁻¹.
